Test results taken from PMC10447463, “Data-mining unveils structure–property–activity correlation of viral infectivity enhancing self-assembling peptides” (Nature Communications, 2023).

Experiment: Aggregate analysis by widefield fluorescence microscopy
Type: physicochemical
Conditions: for Number of Aggregates / Aggregate Number: ThT-stained aggregates > 10 µm2 in 1330 µm × 1330 µm, 1 mg/mL 1 d, diluted to 0.1 mg/mL with 50 µM ThT, 3D object counter ImageJ, triplicate
Outline: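 First, each peptide (1 mg/mL in PBS, from DMSO stock) incubates 1 d at room temperature; next, it is mixed with 50 µM ThT to 0.1 mg/mL; finally, widefield images at 10x (ex 480/40, em 527/30 nm) are analysed by object counting for particles exceeding 10 µm^2, in triplicate.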

QCKIKQIINMWQ [reference compound]
Avg Area in 3 *(1330 µm *1330 µm) (Fig S8 panels A, C): 71.85
Log 10 Number of aggregates in 3 * (1330 µm *1330 µm) (Fig S8 panels A, C): 2.611
Median Area in 3 * (1330 µm *1330 µm) (Fig S8 panels A, C): 27.89
log Avg Area in 3 * ( (1330 µm *1330 µm)) (Fig S8 panels A, C): 1.856
log Median Area in 3 * ( (1330 µm *1330 µm)) (Fig S8 panels A, C): 1.445
log Total Area of all particles in 3 * (1330 µm *1330 µm) (Fig S8 panels A, C): 4.467
Number of aggregates in 3 * (1330 µm *1330 µm) (Fig S8 panels A, C, 3 fields of 1330 µm x 1330 µm): 408
Avg Area in 3 *(1330 µm *1330 µm) (Fig S8 panels B, D, average aggregate area, 3 fields of 1330 µm x 1330 µm): 71.85
Median Area in 3 * (1330 µm *1330 µm) (Fig S8 panels B, D, median aggregate area, 3 fields of 1330 µm x 1330 µm): 27.89
Total Area of all particles in 3 * (1330 µm *1330 µm) (Fig S8 panels B, D, total area of all particles, 3 fields of 1330 µm x 1330 µm): 29314.25467
Number of aggregates in 3 * (1330 µm *1330 µm) (Fig S8 panels B, D, widefield fluorescence microscopy, 3 fields of 1330 µm x 1330 µm): 408
Number of Aggregates / Aggregate Number: 408

KIKQIINMWQ
Number of Aggregates / Aggregate Number: 39

CHLHLQL
Number of Aggregates / Aggregate Number: 36

CKFKFQF
Number of Aggregates / Aggregate Number: 128
Log10 Number Aggregates (logarithm of averaged number of aggregates in 1330 µm × 1330 µm): 2.108

KIKQIIN
Number of Aggregates / Aggregate Number: 12

CKFKFQFNM
Number of Aggregates / Aggregate Number: 170

CKWKWQW
Number of Aggregates / Aggregate Number: 87

KWKWQW
Number of Aggregates / Aggregate Number: 28

KFKFQFNMWQ
Number of Aggregates / Aggregate Number: 64

QCKIKIQINMWQ
Number of Aggregates / Aggregate Number: 398

HIHIQIC
Number of Aggregates / Aggregate Number: 33
